This passage reports IC50, half-life and microsomal CLint results from patent publication US20210177828A1, “TAM FAMILY KINASE /AND CSF1R KINASE INHIBITOR AND USE THEREOF” (Nanjing Transthera Biosciences Co., Ltd., priority 2018, published 2021).

Data set [1] addresses T1, MDA-MB-231 cell pAxl (Homo sapiens, UniProt P30530).
T1 construct: endogenous in cells; host or cells: MDA-MB-231
T1 sequence (P30530 26-894): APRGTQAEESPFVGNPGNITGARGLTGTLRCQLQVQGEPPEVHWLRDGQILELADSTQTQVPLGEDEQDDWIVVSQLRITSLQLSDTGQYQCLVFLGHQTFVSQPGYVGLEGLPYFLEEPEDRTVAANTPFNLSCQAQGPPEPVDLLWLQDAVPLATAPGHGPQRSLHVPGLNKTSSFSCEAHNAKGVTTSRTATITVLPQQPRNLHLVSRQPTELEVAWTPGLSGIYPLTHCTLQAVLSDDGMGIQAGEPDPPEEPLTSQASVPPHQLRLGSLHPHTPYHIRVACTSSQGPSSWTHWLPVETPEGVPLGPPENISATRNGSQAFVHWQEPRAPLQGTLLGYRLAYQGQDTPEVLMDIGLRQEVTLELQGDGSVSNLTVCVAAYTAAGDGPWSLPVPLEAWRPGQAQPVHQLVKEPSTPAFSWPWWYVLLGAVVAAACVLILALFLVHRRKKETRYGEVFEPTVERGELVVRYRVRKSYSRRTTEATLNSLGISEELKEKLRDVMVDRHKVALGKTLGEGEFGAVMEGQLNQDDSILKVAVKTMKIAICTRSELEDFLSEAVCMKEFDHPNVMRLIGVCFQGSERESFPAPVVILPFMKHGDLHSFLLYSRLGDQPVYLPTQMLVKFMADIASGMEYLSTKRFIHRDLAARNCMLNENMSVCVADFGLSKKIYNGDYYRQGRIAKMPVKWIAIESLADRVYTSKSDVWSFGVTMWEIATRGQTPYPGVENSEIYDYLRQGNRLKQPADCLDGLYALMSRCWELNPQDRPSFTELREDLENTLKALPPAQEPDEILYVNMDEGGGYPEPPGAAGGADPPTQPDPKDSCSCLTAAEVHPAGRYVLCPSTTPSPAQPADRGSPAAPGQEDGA
The data set can be described thus: Inhibitory activity on cell pAxl, MDA-MB-231 cells, hGAS6 stimulation, Western Blot. The data set is classed as cell-based. The note with it: hGAS6 200 ng/mL. As for the experimental part:
MDA-MB-231 is a breast cancer cell.
MDA-MB-231 cells were inoculated to a 6-well plate (containing 10% FBS DMEM medium, […] cells per well) and adherently cultivated at 37° C., and 5% CO2 for 18 hrs. The cells were starved overnight, and then compound solutions with different concentrations were added. Compounds 1 and 2 had final concentrations of 1.1, 3.3 and 10 nM, and the remaining compounds had final concentrations of 1.1, 3.3, 10 and 30 nM. […] There was a medium containing 1‰DMSO in the negative control well. The cells were incubated at 37° C., and 5% CO2 for 60 min, and then hGAS6 (R&D, final concentration: 200 ng/mL) was added to each well. The cells were further incubated for 60 min, and then the total protein of the cells was extracted for Western Blot experiment. Gray analysis was performed on the results with Image J software, and IC50 values were calculated with GraphPad 5.0 software. The inhibitory activities of the compounds on cell pAxl were detected.

The nature of data set [2]: Liver microsomal stability. To be noted: mouse liver microsomes, 0.5 mg protein/mL, 1 μM compound. Type of data set: in vitro ADME. As for the experimental part:
An appropriate amount of the compound was precisely weighed and dissolved in DMSO to prepare a 5.0 mM stock solution. The 5.0 mM stock solution was diluted with DMSO to 1.0 mM, and finally diluted with water to a 10 μM working solution of the test sample for use (the DMSO content in the reaction system was 0.1%).
(1) The liver microsomes (20 mg protein/mL) were taken from a −80° C. refrigerator, pre-incubated on a 37° C. water bath thermostatic oscillator for 3 min, and thawed for use.
(2) An incubation system (without compound and β-NADPH) was prepared according to “composition of the incubation system” described above, and pre-incubated on a 37° C. water bath thermostatic oscillator for 2 min.
(3) Control group (without β-NADPH): 30 μL of water and 30 μL of compound working solution (10 μM) were added to 240 μL of the incubation system in step (2), and the reaction system was vortexed for 30 s and thoroughly mixed. The total volume of the reaction system was 300 μL. The sample was duplicated. The reaction solution was placed on a 37° C. water bath thermostatic oscillator for incubation, and timing was started. The sampling was conducted at 0 min and 60 min.
(4) Sample group: 70 μL of β-NADPH solution (10 mM) and 70 μL of compound working solution (10 μM) were added to 560 μL of the incubation system in step (2), and the total volume of the reaction system was 700 μL. The reaction solution was vortexed for 30 s and thoroughly mixed. The sample was duplicated. The reaction solution was placed on a 37° C. water bath thermostatic oscillator for incubation, and timing was started. The sampling was conducted at 0 min, 5 min, 10 min, 20 min, 30 min and 60 min.
(5) The reaction solution was vortexed for 3 min, and centrifuged at 12,000 rpm for 5 min.
(6) 50 μL of the supernatant was added to 150 μL of water, and the resulting solution was thoroughly vortexed and analyzed by LC/MS/MS.
Background: Microsomes from liver hold many membrane-bound enzymes, among them those of drug oxidation.

The term IC50 denotes the concentration that inhibits the measured activity by half. In data set [1], `COc1cc2nccc(Oc3ccc(NC(=O)c4cn(CC5CCOCC5)cc(-c5ccc(C)cc5)c4=O)nc3)c2cc1OC` [Compound 1, N-(5-((6,7-dimethoxyquinolin-4-yl)oxy)pyridin-2-yl)-4-oxo-1-((tetrahydro-2H-pyran-4-yl)methyl)-5-(p-tolyl)-1,4-dihydropyridin-3-carboxamide] showed an IC50 of under 1.1 nM.
On the same count and under the same terms, in the case of `COc1cc2nccc(Oc3ccc(NC(=O)c4nn(CC5CCOCC5)cc(-c5ccc(C)cc5)c4=O)nc3)c2cc1OC` [Compound 2, N-(5-((6,7-dimethoxyquinolin-4-yl)oxy)pyridin-2-yl)-4-oxo-1-((tetrahydro-2H-pyran-4-yl)methyl)-5-(p-tolyl)-1,4-dihydropyridazin-3-carboxamide] it was under 1.1 nM.
By half-life is commonly meant how long it takes for the measured level to halve. Low readings indicate rapid decline, high ones slow decline. Usually microsomal CLint stands for the rate of metabolic loss divided by the concentration. Low readings indicate greater metabolic stability, high ones faster metabolism. In data set [1], `COc1cc2nccc(Oc3cnc(NC(=O)c4cn(CC5CCOCC5)cc(-c5ccc(C)cc5)c4=O)nc3)c2cc1OC` [Compound 4, N-(5-((6,7-dimethoxyquinolin-4-yl)oxy)pyrimidin-2-yl)-4-oxo-1-((tetrahydro-2H-pyran-4-yl)methyl)-5-(p-tolyl)-1,4-dihydropyridin-3-carboxamide] returned an IC50 of under 1.1 nM. In data set [2], this molecule gave a half-life at 1 μM of 3.22 h and a microsomal CLint at 1 μM of 7.2 µL/min/mg.
In turn, `COc1cc2nccc(Oc3ccc(NC(=O)c4cn(CC5CCS(=O)(=O)CC5)cc(-c5ccc(C)cc5)c4=O)nc3)c2cc1OC` [Compound 7, N-(5-((6,7-dimethoxyquinolin-4-yl)oxy)pyridin-2-yl)-1-((1,1-dioxotetrahydro-2H-thiopyran-4-yl)methyl)-4-oxo-5-(p-tolyl)-1,4-dihydropyridin-3-carboxamide] came in with an IC50 in data set [1] of at most 1.1 nM.
In data set [1], `COc1cc2nccc(Oc3ccc(NC(=O)c4cn(CC5CC[S+]([O-])CC5)cc(-c5ccc(C)cc5)c4=O)nc3)c2cc1OC` (stereo not drawn) [Compound 8, N-(5-((6,7-dimethoxyquinolin-4-yl)oxy)pyridin-2-yl)-1-((1-oxotetrahydro-2H-thiopyran-4-yl)methyl)-4-oxo-5-(p-tolyl)-1,4-dihydropyridin-3-carboxamide] displayed a half-inhibitory concentration (IC50) of at most 1 nM. Also, in data set [2], the half-life at 1 μM is 3.22 h and the microsomal CLint at 1 μM was found to be 7.2 µL/min/mg.
The corresponding values for `COc1cc2nccc(Oc3ccc(NC(=O)c4cn(CC5CCSCC5)cc(-c5ccc(C)cc5)c4=O)nc3)c2cc1OC` [Compound 9, N-(5-((6,7-dimethoxyquinolin-4-yl)oxy)pyridin-2-yl)-4-oxo-1-((tetrahydro-2H-thiopyran-4-yl)methyl)-5-(p-tolyl)-1,4-dihydropyridin-3-carboxamide] are under 10 nM, 0.818 h and 28.2 µL/min/mg.
As for `COc1cc2nccc(Oc3ccc(NC(=O)c4cc(-c5ccc(C)cc5)cn(CC5CCOCC5)c4=O)nc3)c2cc1OC` [Compound 13, N-(5-((6,7-dimethoxyquinolin-4-yl)oxy)pyridin 2yl)-2-oxo-1-((tetrahydro-2H-pyran-4-yl)methyl)-5-(p-tolyl)-1,2-dihydropyridin-3-carboxamide], the IC50 in data set [1] was at most 3.1 nM.
In data set [1], `COc1cc2nccc(Oc3cnc(NC(=O)c4nn(CC5CCOCC5)cc(-c5ccc(C)cc5)c4=O)nc3)c2cc1OC` [Compound 16, N-(5-((6,7-dimethoxyquinolin-4-yl)oxy)pyrimidin-2-yl)-4-oxo-1-((tetrahydro-2H-pyran-4-yl)methyl)-5-(p-tolyl)-1,4-dihydropyridazin-3-carboxamide] had an IC50 of under 1.1 nM. Moreover, in data set [2], the half-life at 1 μM worked out at 3.5 h and the microsomal CLint at 1 μM is 6.6 µL/min/mg.
For `COc1cc2nccc(Oc3ccc(NC(=O)c4nn(C5CCOCC5)cc(-c5ccc(C)cc5)c4=O)nc3)c2cc1OC` [Compound 17, N-(5-((6,7-dimethoxyquinolin-4-yl)oxy)pyridin-2-yl)-4-oxo-1-(tetrahydro-2H-pyran-4-yl)-5-(p-tolyl)-1,4-dihydropyridazin-3-carboxamide], in that order: under 1.1 nM, 1.87 h and 12.4 µL/min/mg.
Consider `COc1cc2nccc(Oc3cnc(NC(=O)c4nn(C5CCOCC5)cc(-c5ccc(C)cc5)c4=O)nc3)c2cc1OC` [Compound 18, N-(5-((6,7-dimethoxyquinolin-4-yl)oxy)pyrimidin-2-yl)-4-oxo-1-(tetrahydro-2H-pyran-4-yl)-5-(p-tolyl)-1,4-dihydropyridazin-3-carboxamide], for which the IC50 in data set [1] was under 1.1 nM. Also, in data set [2], the half-life at 1 μM amounted to 1.93 h and the microsomal CLint at 1 μM is 12 µL/min/mg.
For `COc1cc2nccc(Oc3ccc(NC(=O)c4cn(C5CCOCC5)cc(-c5ccc(C)cc5)c4=O)nc3)c2cc1OC` [Compound 19, N-(5-((6,7-dimethoxyquinolin-4-yl)oxy)pyridin-2-yl)-4-oxo-1-(tetrahydro-2H-pyran-4-yl)-5-(p-tolyl)-1,4-dihydropyridin-3-carboxamide], in that order: under 1.1 nM, 2.27 h and 10.2 µL/min/mg.
For `COc1cc2nccc(Oc3cnc(NC(=O)c4cn(C5CCOCC5)cc(-c5ccc(C)cc5)c4=O)nc3)c2cc1OC` [Compound 20, N-(5-((6,7-dimethoxyquinolin-4-yl)oxy)pyrimidin-2-yl)-4-oxo-1-(tetrahydro-2H-pyran-4-yl)-5-(p-tolyl)-1,4-dihydropyridin-3-carboxamide], in that order: under 10 nM, 3.73 h and 6.2 µL/min/mg.
Take `COc1cc2nccc(Oc3ccc(NC(=O)c4cn(CC5CCOCC5)cc(-c5ccc(C)cc5)c4=O)nn3)c2cc1OC` [Compound 24, N-(6-((6,7-dimethoxyquinolin-4-yl)oxy)pyridazin-3-yl)-4-oxo-1-((tetrahydro-2H-pyran-4-yl)methyl)-5-(p-tolyl)-1,4-dihydropyridin-3-carboxamide]: in data set [1], the half-inhibitory concentration (IC50) is under 10 nM.
The same measure, in the same setting: in the case of `COc1cc2nccc(Oc3ccc(NC(=O)c4cn(CC5CCOCC5)c5ccccc5c4=O)nc3)c2cc1OC` [Compound 25, N-(5-((6,7-dimethoxyquinolin-4-yl)oxy)pyridin-2-yl)-4-oxo-1-((tetrahydro-2H-pyran-4-yl)methyl)-1,4-dihydroquinolin-3-carboxamide] it was at most 503 nM.
Turning to `COc1cc2nccc(Oc3ccc(NC(=O)c4cc(CC5CCOCC5)cn(-c5ccc(C)cc5)c4=O)nc3)c2cc1OC` [Compound 26, N-(5-((6,7-dimethoxyquinolin-4-yl)oxy)pyridin-2-yl)-oxo-5-((tetrahydro-2H-pyran-4-yl)methyl)-1-(p-tolyl)-1,2-dihydropyridin-3-carboxamide], the IC50 in data set [1] is under 3.3 nM. Moreover, in data set [2], the half-life at 1 μM stood at 1.75 h and the microsomal CLint at 1 μM came to 13.2 µL/min/mg.
